Patent US12110295B2, “WD40 repeat domain protein 5 (WDR5) degradation/disruption compounds and methods of use” (Icahn School of Medicine at Mount Sinai, priority 2018, dated 2024)

Biological target: WDR5 (Homo sapiens, UniProt P61964)
Assay: Screening of putative WDR5 degraders by Western blot in MV4;11 and/or MIAPACA2 cells
Format: cell-based
Design: After WDR5 degrader treatment, cells were collected and lysed; endogenous in cells; host or cells: MV4;11 and/or MIAPACA2
Conditions: summary of screening, FIGS. 6-10
Procedure, shortened: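 MV4;11 (1×10^6/well) or MIAPACA2 (1×10^5/well) cells treated 18 h with compound at paired doses between 0.1 and 10 μM, DMSO as control. Total lysates immunoblotted for WDR5 with vinculin, tubulin or GAPDH loading controls; fluorescent secondary detection.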

Compound	effective degradation of WDR5 in MV4;11 and/or MIAPACA2 cells
Cc1ncsc1-c1ccc(CNC(=O)[C@@H]2C[C@@H](O)CN2C(=O)[C@@H](NC(=O)CCCCCCCCC(=O)N2CCN(Cc3cnc(N4CC=C(c5cc(NC(=O)c6c[nH]c(=O)cc6C(F)(F)F)c(N6C[C@@H](C)N(C)[C@@H](C)C6)cc5F)CC4)nc3)CC2)C(C)(C)C)cc1 [XF078-147, N-(4-fluoro-5-(1-(5-((4-(10-(((S)-1-((2S,4R)-4-hydroxy-2-((4-(4-methylthiazol-5-yl)benzyl)carbamoyl)pyrrolidin-1-yl)-3,3-dimethyl-1-oxobutan-2-yl)amino)-10-oxodecanoyl)piperazin-1-yl)methyl)pyrimidin-2-yl)-1,2,3,6-tetrahydropyridin-4-yl)-2-((3S,5R)-3,4,5-trimethylpiperazin-1-yl)phenyl)-6-oxo-4-(trifluoromethyl)-1,6-dihydropyridine-3-carboxamide]	able to effectively degrade WDR5
Cc1ncsc1-c1ccc(CNC(=O)[C@@H]2C[C@@H](O)CN2C(=O)[C@@H](NC(=O)CCCCCCCCCCCCC(=O)NCCN2CCN(Cc3cccc(-c4ccc(N5CCN(C)CC5)c(NC(=O)c5c[nH]c(=O)cc5C(F)(F)F)c4)c3)CC2)C(C)(C)C)cc1 [XF050-162, N^1-((S)-1-((2S,4R)-4-hydroxy-2-((4-(4-methylthiazol-5-yl)benzyl)carbamoyl)pyrrolidin-1-yl)-3,3-dimethyl-1-oxobutan-2-yl)-N^14-(2-(4-((4′-(4-methylpiperazin-1-yl)-3′-(6-oxo-4-(trifluoromethyl)-1,6-dihydropyridine-3-carboxamido)-[1,1′-biphenyl]-3-yl)methyl)piperazin-1-yl)ethyl)tetradecanediamide]	able to effectively degrade WDR5
Cc1ncsc1-c1ccc(CNC(=O)[C@@H]2C[C@@H](O)CN2C(=O)[C@@H](NC(=O)CCCCCC(=O)N2CCN(Cc3cnc(N4CC=C(c5cc(NC(=O)c6c[nH]c(=O)cc6C(F)(F)F)c(N6C[C@@H](C)N(C)[C@@H](C)C6)cc5F)CC4)nc3)CC2)C(C)(C)C)cc1 [XF078-144, N-(4-fluoro-5-(1-(5-((4-(7-(((S)-1-((2S,4R)-4-hydroxy-2-((4-(4-methylthiazol-5-yl)benzyl)carbamoyl)pyrrolidin-1-yl)-3,3-dimethyl-1-oxobutan-2-yl)amino)-7-oxoheptanoyl)piperazin-1-yl)methyl)pyrimidin-2-yl)-1,2,3,6-tetrahydropyridin-4-yl)-2-((3S,5R)-3,4,5-trimethylpiperazin-1-yl)phenyl)-6-oxo-4-(trifluoromethyl)-1,6-dihydropyridine-3-carboxamide]	able to effectively degrade WDR5
Cc1ncsc1-c1ccc(CNC(=O)[C@@H]2C[C@@H](O)CN2C(=O)[C@@H](NC(=O)CCCCCCC(=O)N2CCN(c3ncc(-c4cc(NC(=O)c5ccc(F)cc5C(F)(F)F)c(N5C[C@@H](C)N(C)[C@@H](C)C5)cc4F)cn3)CC2)C(C)(C)C)cc1 [XF078-112, (2S,4R)-1-((S)-2-(8-(4-(5-(2-fluoro-5-(4-fluoro-2-(trifluoromethyl)benzamido)-4-((3S,5R)-3,4,5-trimethylpiperazin-1-yl)phenyl)pyrimidin-2-yl)piperazin-1-yl)-8-oxooctanamido)-3,3-dimethylbutanoyl)-4-hydroxy-N-(4-(4-methylthiazol-5-yl)benzyl)pyrrolidine-2-carboxamide]	able to effectively degrade WDR5
Cc1ncsc1-c1ccc(CNC(=O)[C@@H]2C[C@@H](O)CN2C(=O)[C@@H](NC(=O)CCOCCOCCC(=O)N2CCN(c3ncc(-c4cc(NC(=O)c5ccc(F)cc5C(F)(F)F)c(N5C[C@@H](C)N(C)[C@@H](C)C5)cc4F)cn3)CC2)C(C)(C)C)cc1 [XF078-102, (2S,4R)-1-((S)-2-(3-(2-(3-(4-(5-(2-fluoro-5-(4-fluoro-2-(trifluoromethyl)benzamido)-4-((3S,5R)-3,4,5-trimethylpiperazin-1-yl)phenyl)pyrimidin-2-yl)piperazin-1-yl)-3-oxopropoxy)ethoxy)propanamido)-3,3-dimethylbutanoyl)-4-hydroxy-N-(4-(4-methylthiazol-5-yl)benzyl)pyrrolidine-2-carboxamide]	able to effectively degrade WDR5
Cc1ncsc1-c1ccc(CNC(=O)[C@@H]2C[C@@H](O)CN2C(=O)[C@@H](NC(=O)COCCNC(=O)CCC(=O)N2CCN(c3ccc(-c4cc(NC(=O)c5c[nH]c(=O)cc5C(F)(F)F)c(N5C[C@@H](C)N(C)[C@@H](C)C5)cc4F)cn3)CC2)C(C)(C)C)cc1 [XF067-140, N-(4-fluoro-5-(6-(4-(4-((2-(2-(((S)-1-((2S,4R)-4-hydroxy-2-((4-(4-methylthiazol-5-yl)benzyl)carbamoyl)pyrrolidin-1-yl)-3,3-dimethyl-1-oxobutan-2-yl)amino)-2-oxoethoxy)ethyl)amino)-4-oxobutanoyl)piperazin-1-yl)pyridin-3-yl)-2-((3S,5R)-3,4,5-trimethylpiperazin-1-yl)phenyl)-6-oxo-4-(trifluoromethyl)-1,6-dihydropyridine-3-carboxamide]	able to effectively degrade WDR5
Cc1ncsc1-c1ccc(CNC(=O)[C@@H]2C[C@@H](O)CN2C(=O)[C@@H](NC(=O)CCOCCC(=O)NCCN2CCN(Cc3ccc(F)c(-c4ccc(N5C[C@@H](C)N(C)[C@@H](C)C5)c(NC(=O)c5c[nH]c(=O)cc5C(F)(F)F)c4)c3)CC2)C(C)(C)C)cc1 [XF078-2, N-(2′-fluoro-5′-((4-(2-(3-(3-(((S)-1-((2S,4R)-4-hydroxy-2-((4-(4-methylthiazol-5-yl)benzyl)carbamoyl)pyrrolidin-1-yl)-3,3-dimethyl-1-oxobutan-2-yl)amino)-3-oxopropoxy)propanamido)ethyl)piperazin-1-yl)methyl)-4-((3S,5R)-3,4,5-trimethylpiperazin-1-yl)-[1,1′-biphenyl]-3-yl)-6-oxo-4-(trifluoromethyl)-1,6-dihydropyridine-3-carboxamide]	able to effectively degrade WDR5
C[C@@H]1CN(c2ccc(-c3cc(CN4CCN(CCNC(=O)CCOCCOCCOCCOCCOCCNc5cccc6c5C(=O)N(C5CCC(=O)NC5=O)C6=O)CC4)ccc3F)cc2NC(=O)c2c[nH]c(=O)cc2C(F)(F)F)C[C@H](C)N1C (stereo partly drawn) [XF078-29, N-(5′-((4-(1-((2-(2,6-dioxopiperidin-3-yl)-1,3-dioxoisoindolin-4-yl)amino)-18-oxo-3,6,9,12,15-pentaoxa-19-azahenicosan-21-yl)piperazin-1-yl)methyl)-2′-fluoro-4-((3S,5R)-3,4,5-trimethylpiperazin-1-yl)-[1,1′-biphenyl]-3-yl)-6-oxo-4-(trifluoromethyl)-1,6-dihydropyridine-3-carboxamide]	able to effectively degrade WDR5
Cc1ncsc1-c1ccc(CNC(=O)[C@@H]2C[C@@H](O)CN2C(=O)[C@@H](NC(=O)COCCNC(=O)CCC(=O)N2CCN(c3ncc(-c4cc(NC(=O)c5c[nH]c(=O)cc5C(F)(F)F)c(N5C[C@@H](C)N(C)[C@@H](C)C5)cc4F)cn3)CC2)C(C)(C)C)cc1 [XF078-61, N-(4-fluoro-5-(2-(4-(4-((2-(2-(((S)-1-((2S,4R)-4-hydroxy-2-((4-(4-methylthiazol-5-yl)benzyl)carbamoyl)pyrrolidin-1-yl)-3,3-dimethyl-1-oxobutan-2-yl)amino)-2-oxoethoxy)ethyl)amino)-4-oxobutanoyl)piperazin-1-yl)pyrimidin-5-yl)-2-((3S,5R)-3,4,5-trimethylpiperazin-1-yl)phenyl)-6-oxo-4-(trifluoromethyl)-1,6-dihydropyridine-3-carboxamide]	able to effectively degrade WDR5
Cc1ncsc1-c1ccc(CNC(=O)[C@@H]2C[C@@H](O)CN2C(=O)[C@@H](NC(=O)CCC(=O)N2CCN(Cc3cnc(N4CC=C(c5cc(NC(=O)c6c[nH]c(=O)cc6C(F)(F)F)c(N6C[C@@H](C)N(C)[C@@H](C)C6)cc5F)CC4)nc3)CC2)C(C)(C)C)cc1 [XF078-141, N-(4-fluoro-5-(1-(5-((4-(4-(((S)-1-((2S,4R)-4-hydroxy-2-((4-(4-methylthiazol-5-yl)benzyl)carbamoyl)pyrrolidin-1-yl)-3,3-dimethyl-1-oxobutan-2-yl)amino)-4-oxobutanoyl)piperazin-1-yl)methyl)pyrimidin-2-yl)-1,2,3,6-tetrahydropyridin-4-yl)-2-((3S,5R)-3,4,5-trimethylpiperazin-1-yl)phenyl)-6-oxo-4-(trifluoromethyl)-1,6-dihydropyridine-3-carboxamide]	able to effectively degrade WDR5
C[C@@H]1CN(c2ccc(-c3ccc(C(=O)NCCCCCCCCNc4cccc5c4C(=O)N(C4CCC(=O)NC4=O)C5=O)cc3F)cc2NC(=O)c2c[nH]c(=O)cc2C(F)(F)F)C[C@H](C)N1C (stereo partly drawn) [XF056-186, N-(4′-((8-((2-(2,6-dioxopiperidin-3-yl)-1,3-dioxoisoindolin-4-yl)amino)octyl)carbamoyl)-2′-fluoro-4-((3R,5S)-3,4,5-trimethylpiperazin-1-yl)-[1,1′-biphenyl]-3-yl)-6-oxo-4-(trifluoromethyl)-1,6-dihydropyridine-3-carboxamide]	able to effectively degrade WDR5
C[C@@H]1CN(c2cc(F)c(C3=CCN(c4ncc(CN5CCN(C(=O)CCOCCOCCOCCOCCOCCNc6cccc7c6C(=O)N(C6CCC(=O)NC6=O)C7=O)CC5)cn4)CC3)cc2NC(=O)c2c[nH]c(=O)cc2C(F)(F)F)C[C@H](C)N1C (stereo partly drawn) [XF078-160, N-(5-(1-(5-((4-(1-((2-(2,6-dioxopiperidin-3-yl)-1,3-dioxoisoindolin-4-yl)amino)-3,6,9,12,15-pentaoxaoctadecan-18-oyl)piperazin-1-yl)methyl)pyrimidin-2-yl)-1,2,3,6-tetrahydropyridin-4-yl)-4-fluoro-2-((3S,5R)-3,4,5-trimethylpiperazin-1-yl)phenyl)-6-oxo-4-(trifluoromethyl)-1,6-dihydropyridine-3-carboxamide]	able to effectively degrade WDR5
